Measured values published in patent US8598114B2, “Antimicrobial compounds” (priority 2007, dated 2013).
“And” between values parts separate entries of the source, which are not always exact repeats. Identical values can stand only once.

How the values were obtained:
Candida albicans = assay: MIC, CLSI microbroth dilution (yeasts); format: cell-based; parameters: unit not given beside the values
Experimental: (§1) M27-A2 Vol. 22 No. 15 Reference Method for Broth Dilution Antifungal Susceptibility Testing of Yeasts; Approved Standard-Second Edition.
(§2) Yeast and filamentous fungal MIC were performed in MOPS buffered RPMI 1640 medium (MOPS buffer obtained from Sigma Aldrich Ltd., RPMI 1640 obtained from Invitrogen Ltd, Paisley, Scotland). The yeast inocula were in the range 7.5×10^2-4×10^3 CFU/mL and the filamentous fungi approximately 8×10^3-1×10^5CFU/mL

Cryptococcus neoformans = assay: MIC, CLSI microbroth dilution (yeasts); format: cell-based; parameters: unit not given beside the values; settings: Cryptococcus neoformans - G.R. Micro collection
Experimental: as §1, §2

Candida parapsilosis = assay: MIC, CLSI microbroth dilution (yeasts); format: cell-based; parameters: unit not given beside the values
Experimental: as §1, §2

[1] = test system: Candida (Issatchenkia) krusei; assay: MIC, CLSI microbroth dilution (yeasts); format: cell-based; parameters: unit not given beside the values
Experimental: as §1, §2

Candida tropicalis = assay: MIC, CLSI microbroth dilution (yeasts); format: cell-based; parameters: unit not given beside the values; settings: Candida tropicalis ATCC750 - reference strain
Experimental: as §1, §2

Haemophilus influenzae = assay: MIC, CLSI microbroth dilution (Haemophilus test medium)
Eggerthella lenta = assay: MIC, CLSI microbroth dilution (anaerobic bacteria); format: cell-based; parameters: unit not given here; settings: Eggerthella lenta - ATCC 43055, SBB (Table 2)
Staphylococcus aureus = assay: MIC, CLSI microbroth dilution (aerobic bacteria); format: cell-based; parameters: unit not given here
Description: (§3) Cation-adjusted Mueller-Hinton broth (Oxoid Ltd., Basingstoke, UK and Trek Diagnostic Systems Ltd., East Grinstead, UK) (supplemented with 5% laked horse blood for Streptococcus spp., Corynebacterium jeikeium and Listeria monocytogenes) was used for aerobic bacteria, with an initial inoculum of approximately 10^5 colony-forming units (CFU)/mL.
(§4) To evaluate whether freezing affected the activity of the peptides some MIC determinations were repeated using plates containing freshly-prepared Mueller-Hinton broth.

Aspergillus niger = assay: MIC, CLSI microbroth dilution (filamentous fungi); format: cell-based; parameters: unit not given beside the values; settings: Aspergillus niger - G.R. Micro collection
Experimental: (§5) M38-A Vol. 22 No. 16 Reference Method for Broth Dilution Antifungal Susceptibility Testing of Filamentous Fungi; Approved Standard.
as §2

[2] = test system: Trichophyton interdigitale; assay: MIC, CLSI microbroth dilution (filamentous fungi); format: cell-based; parameters: unit not given beside the values; settings: Trichophyton interdigitale - G.R. Micro collection
Experimental: as §5, §2

[3] = test system: Trichophyton mentagrophytes; assay: MIC, CLSI microbroth dilution (filamentous fungi); format: cell-based; parameters: unit not given beside the values; settings: Trichophyton mentagrophytes - G.R. Micro collection
Experimental: as §5, §2

trypsin = assay: in vitro; format: in vitro ADME; settings: pH 8.6
Experimental: Measurements and Calculation of Peptide Half-Life
Each peptide was dissolved in a 0.1 M NH4HCO3 buffer (pH 6.5) to yield a final peptide concentration of 1 mg/ml. A trypsin solution was prepared by dissolving 1 mg of trypsin in 50 ml 0.1 M NH4HCO3 buffer (pH 8.2). For the stability determination, 250 μl freshly made trypsin solution and 250 μl peptide solution were incubated in 2 ml of 0.1 M NH4HCO3 buffer (pH 8.6) at 37° C. on a rocking table. Aliquots of 0.5 ml were sampled at different time intervals, diluted with 0.5 ml water:acetonitrile (60:40 v/v) containing 1% TFA and analysed by RP-HPLC as described above. Samples without trypsin addition taken at 0 h and after 20 h at 37° C. were used as negative controls. Integration of the peak area at 254 nm for samples taken during the first 5 hours of the assay was used to generate the τ1/2.

Pseudomonas aeruginosa = assay: MIC, CLSI microbroth dilution (aerobic bacteria); format: cell-based; parameters: unit not given beside the values
Description: as §3, §4

Escherichia coli = assay: MIC, CLSI microbroth dilution (aerobic bacteria); format: cell-based; parameters: unit not given beside the values
Description: as §3, §4

Enterococcus faecalis = assay: MIC, CLSI microbroth dilution (aerobic bacteria); format: cell-based; parameters: unit not given beside the values
Description: as §3, §4

N=C(N)NCCCC(N)C(=O)NC(Cc1ccc(-c2ccc3ccccc3c2)cc1)C(=O)NC(CCCNC(=N)N)C(=O)NCCc1ccccc1 (stereo not shown) [Compound 1]
MIC (Candida albicans; Candida albicans ATCC24433 - reference strain): 2
MIC (Candida albicans; Candida albicans ATCC90028 - reference strain): 2
MIC (Cryptococcus neoformans): 4
MIC (Candida parapsilosis; Candida parapsilosis ATCC 22019, RPMI 1640 (Table 2)): 4
MIC (Candida parapsilosis; Candida parapsilosis ATCC90018 - reference strain): 4
MIC ([1]; Candida (Issatchenkia) krusei ATCC6258 - reference strain): 4
MIC ([1]; F05 Candida (Issatchenkia) krusei ATCC 6258 reference strain, repeat results (Table 2), RPMI 1640): 8
MIC (Candida tropicalis): 2
MIC (Haemophilus influenzae; Haemophilus influenzae - β-lactamase negative clinical isolate): ≧128
MIC (Haemophilus influenzae; Haemophilus influenzae - β-lactamase positive clinical isolate): ≧128
MIC (Haemophilus influenzae; Haemophilus influenzae β-lactamase negative ampicillin-resistant): ≧128
MIC (Eggerthella lenta): 16
MIC (Staphylococcus aureus; EMRSA1 Staphylococcus aureus (MRSA) - SSCmec type 3): 8
MIC (Staphylococcus aureus; EMRSA3 Staphylococcus aureus (MRSA) - SSCmec type 1): 4
MIC (Staphylococcus aureus; EMRSA15 Staphylococcus aureus (MRSA) - SSCmec type 4): 4
MIC (Staphylococcus aureus; EMRSA16 Staphylococcus aureus (MRSA) - SSCmec type 2): 4
MIC (Staphylococcus aureus; GP01 Staphylococcus aureus ATCC 29213 control strain, repeat results (Table 2), Fresh MHB): 4
MIC (Staphylococcus aureus; GP01 Staphylococcus aureus ATCC 29213 control strain, repeat results (Table 2), Frozen MHB): 8 and 4
MIC (Staphylococcus aureus; HT2001254 Staphylococcus aureus (MRSA) - PVL positive): 4
MIC (Staphylococcus aureus; MU50 Staphylococcus aureus (MRSA) - VISA type strain): 4
MIC (Staphylococcus aureus; Staphylococcus aureus - methicillin-resistant clinical isolate): 4
MIC (Staphylococcus aureus; Staphylococcus aureus - multi-drug-resistant clinical isolate): 8
MIC (Staphylococcus aureus; Staphylococcus aureus - teicoplanin-intermediate clinical isolate): 4
MIC (Staphylococcus aureus; Staphylococcus aureus ATCC 25923 - antibiotic-susceptible control): 4
MIC (Staphylococcus aureus; Staphylococcus aureus ATCC 29213 - antibiotic-susceptible control (Table 1)): 4
MIC (Staphylococcus aureus; Staphylococcus aureus ATCC 43300 - methicillin-resistant control strain): 4
MIC (Aspergillus niger): 4
MIC [2]: 8
MIC [3]: 16
half-life at 0.1 mg/ml (trypsin): > 24 h
MIC (Pseudomonas aeruginosa; GN10 Pseudomonas aeruginosa ATCC 27853 type strain, repeat results (Table 2), Fresh MHB): 8
MIC (Pseudomonas aeruginosa; GN10 Pseudomonas aeruginosa ATCC 27853 type strain, repeat results (Table 2), Frozen MHB): 16 and 32
MIC (Pseudomonas aeruginosa; Pseudomonas aeruginosa - multi-drug resistant clinical isolate): 32
MIC (Pseudomonas aeruginosa; Pseudomonas aeruginosa ATCC27853 - antibiotic-susceptible type): 16
MIC (Escherichia coli; Escherichia coli - multi-drug resistant clinical isolate): 32
MIC (Escherichia coli; Escherichia coli ATCC25922 - antibiotic-susceptible type strain): 32
MIC (Escherichia coli; Escherichia coli ATCC32518 - β-lactamase positive type strain): 32
MIC (Escherichia coli; GN01 Escherichia coli ATCC 25922 type strain, repeat results (Table 2), Fresh MHB): 16
MIC (Escherichia coli; GN01 Escherichia coli ATCC 25922 type strain, repeat results (Table 2), Frozen MHB): 32
MIC (Enterococcus faecalis; Enterococcus faecalis - ATCC 29212 antibiotic-susceptible control (Table 1)): 4
MIC (Enterococcus faecalis; Enterococcus faecalis high-level gentamicin-resistant clinical isolate): 16
MIC (Enterococcus faecalis; Enterococcus faecalis vancomycin-resistant (VanA) clinical isolate): 16
MIC (Enterococcus faecalis; Enterococcus faecalis vancomycin-resistant (VanB) clinical isolate): 16
MIC (Enterococcus faecalis; Enterococcus faecalis vancomycin-susceptible clinical isolate): 8
MIC (Enterococcus faecalis; GP11 Enterococcus faecalis - ATCC 29212 control strain, repeat results (Table 2), Fresh MHB): 4
MIC (Enterococcus faecalis; GP11 Enterococcus faecalis - ATCC 29212 control strain, repeat results (Table 2), Frozen MHB): 8
